We go through 6 molecules from patent publication US20050054770A1, “Helicomimetics and stabilized lxxll peptidomimetics” (priority 2001, published 2005).

pKi: −log10 of the molar value. Positions of bridges follow the written chain, without caps; N, C: chain ends. Non-standard residues stand in square brackets, D forms with d. Residues, ends and D or L forms follow the SMILES beside them. hCys = N[C@@H](CCS)C(=O)O

Experiment [1] deals with estrogen receptors. The experiment is described as follows: inhibition of the binding of the estrogen receptors to the helical segment of coactivator proteins. The settings on record: result in words. The procedure:
(§1) The synthetic helicormimetic peptides designed as antagonists of the estrogen receptor-coactivator interactions were tested in a competition binding assay (Lilly Research Labs) against a model linear peptide sequence. Activities are reported in the Table below in Ki values, with two of the best analogs labeled as PERM-1 and PERM-2, or Peptidomimetic Estrogen Receptor Modulators.

Experiment [2] has as its target T1, ER alpha (Homo sapiens, UniProt P03372).
T1 sequence (P03372 1-595): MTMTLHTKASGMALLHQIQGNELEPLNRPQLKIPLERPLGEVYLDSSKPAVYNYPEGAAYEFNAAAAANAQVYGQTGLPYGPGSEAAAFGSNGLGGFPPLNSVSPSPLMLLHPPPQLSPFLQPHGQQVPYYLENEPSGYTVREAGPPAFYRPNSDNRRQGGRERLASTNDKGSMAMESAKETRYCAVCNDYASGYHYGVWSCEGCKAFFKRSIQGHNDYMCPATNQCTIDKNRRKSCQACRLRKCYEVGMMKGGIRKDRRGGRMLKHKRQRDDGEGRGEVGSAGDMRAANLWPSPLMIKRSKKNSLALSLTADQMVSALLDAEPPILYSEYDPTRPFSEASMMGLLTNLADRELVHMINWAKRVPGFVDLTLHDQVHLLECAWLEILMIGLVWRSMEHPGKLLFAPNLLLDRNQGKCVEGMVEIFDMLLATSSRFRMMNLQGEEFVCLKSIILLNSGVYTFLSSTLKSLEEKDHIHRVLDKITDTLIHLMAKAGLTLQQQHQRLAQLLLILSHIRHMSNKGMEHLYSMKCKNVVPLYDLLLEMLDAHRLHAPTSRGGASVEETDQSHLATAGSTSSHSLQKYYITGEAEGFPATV
The experiment is described as follows: competition binding assay against a model linear peptide sequence (estrogen receptor-coactivator interaction), ER alpha. To be noted: competition binding assay (Lilly Research Labs); read-out: Ki ER α. As for the experimental part:
as §1

In experiment [3] the target is ER beta (Homo sapiens, UniProt Q92731). The experiment is described as follows: competition binding assay against a model linear peptide sequence (estrogen receptor-coactivator interaction), ER beta. The settings on record: competition binding assay (Lilly Research Labs); read-out: Ki ER β. As for the experimental part:
as §1

Chain of ER beta (Q92731 whole entry): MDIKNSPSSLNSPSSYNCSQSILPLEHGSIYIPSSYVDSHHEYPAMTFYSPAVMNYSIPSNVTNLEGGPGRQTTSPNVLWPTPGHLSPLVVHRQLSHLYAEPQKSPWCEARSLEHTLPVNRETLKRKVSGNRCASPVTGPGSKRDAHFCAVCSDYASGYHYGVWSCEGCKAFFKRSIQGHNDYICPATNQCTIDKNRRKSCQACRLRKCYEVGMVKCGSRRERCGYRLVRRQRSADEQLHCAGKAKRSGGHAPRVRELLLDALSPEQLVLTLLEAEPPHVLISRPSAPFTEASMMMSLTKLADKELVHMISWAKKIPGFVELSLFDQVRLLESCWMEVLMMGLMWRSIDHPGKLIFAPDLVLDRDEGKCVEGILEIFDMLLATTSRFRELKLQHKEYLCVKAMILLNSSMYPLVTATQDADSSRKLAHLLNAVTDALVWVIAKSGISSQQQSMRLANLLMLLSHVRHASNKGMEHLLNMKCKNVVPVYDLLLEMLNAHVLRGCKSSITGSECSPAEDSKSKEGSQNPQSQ

For “Leu-Asn-Gln-Leu-Leu (LNQLL; printed: Leu-Asn-Gln-Leu-Leu)”, the “inhibitory activity on binding of estrogen receptors to helical segment of coactivator proteins” value in experiment [1] was “do not display any inhibitory activity”. One may read the pKi as −log10 of the Ki, conventionally taken in molar units. On to `CC[C@H](C)[C@H](NC(=O)[C@H](CCCCN)NC(=O)[C@H](Cc1c[nH]cn1)NC(=O)[C@@H](N)CCCCN)C(=O)N[C@@H](CC(C)C)C(=O)N[C@@H](Cc1c[nH]cn1)C(=O)N[C@@H](CCCNC(=N)N)C(=O)N[C@@H](CC(C)C)C(=O)N[C@@H](CC(C)C)C(=O)N[C@@H](CCC(N)=O)C(=O)N[C@@H](CC(=O)O)C(=O)N[C@@H](CO)C(=O)N[C@@H](CO)C(=O)O` [AML-I-89/2, H-Lys-His-Lys-Ile-Leu-His-Arg-Leu-Leu-Gln-Asp-Ser-Ser-OH] (H-KHKILHRLLQDSS-OH), for which the pKi in experiment [2] is 6.42; in experiment [3], 5.16. Regarding `CC[C@H](C)[C@@H]1NC(=O)[C@H](NC(=O)[C@@H](N)CCCNC(=N)N)CSSC[C@@H](C(=O)N[C@@H](CCCNC(=N)N)C(=O)N[C@@H](CC(C)C)C(=O)N[C@@H](CC(C)C)C(=O)N[C@@H](CCC(N)=O)C(N)=O)NC(=O)[C@H](CC(C)C)NC1=O` [AKG-I-50, H-Arg-cyclo(D-Cys-Ile-Leu-Cys)-Arg-Leu-Leu-Gln-NH2] (H-R[dC]ILCRLLQ-NH2; disulfide 2-5), the results for the negative-log Ki (pKi) in experiment [2] and in experiment [3] were 7.96 and 7.11, respectively. The matching figures for `CC[C@H](C)[C@@H]1NC(=O)[C@@H](NC(=O)[C@@H](N)CCCNC(=N)N)CSSC[C@@H](C(=O)N[C@@H](CC(C)C)C(=O)N[C@@H](CC(C)C)C(=O)N[C@@H](CCC(N)=O)C(N)=O)NC(=O)[C@H](CCCNC(=N)N)NC(=O)[C@H](CC(C)C)NC1=O` [AKG-II-8, H-Arg-cyclo (Cys-Ile-Leu-Arg-Cys)-Leu-Leu-Gln-NH2] (H-RCILRCLLQ-NH2; disulfide 2-6): 6.76 and 5.94. On to `CC[C@H](C)[C@@H]1NC(=O)[C@H](NC(=O)[C@@H](N)CCCNC(=N)N)CSSCC[C@@H](C(=O)N[C@@H](CCCNC(=N)N)C(=O)N[C@@H](CC(C)C)C(=O)N[C@@H](CC(C)C)C(=O)N[C@@H](CCC(N)=O)C(N)=O)NC(=O)[C@H](CC(C)C)NC1=O` [AKG-II-3, H-Arg-cyclo (D-Cys-Ile-Leu-HomoCys)-Arg-Leu-Leu-Gln-NH2] (H-R[dC]IL[hCys]RLLQ-NH2; disulfide 2-5), for which the figures for the pKi in experiment [2] and in experiment [3] were 7.89 and 6.67, respectively.

Take `CC[C@H](C)[C@@H]1NC(=O)[C@@H](NC(=O)[C@@H](N)CCCCN)CSSC[C@H](C(=O)N[C@@H](CCCNC(=N)N)C(=O)N[C@@H](CC(C)C)C(=O)N[C@@H](CC(C)C)C(=O)N[C@@H](CCC(N)=O)C(N)=O)NC(=O)[C@H](CC(C)C)NC1=O` [AKG-I-60, H-Lys-cyclo(Cys-Ile-Leu-D-Cys)-Arg-Leu-Leu-Gln-NH2] (H-KCIL[dC]RLLQ-NH2; disulfide 2-5): the pKi in experiment [2] was 5.62; in experiment [3], 5.14.
